EP4321514B1, “COMPOUND HAVING ALK INHIBITORY ACTIVITY, PREPARATION METHOD THEREFOR AND USE THEREOF” (CGeneTech (Suzhou, China) Co., Ltd., priority 2021, dated 2022)

Legend:
[1] = system: human anaplastic large cell lymphoma cell Karpas 299; assay: ALK gene fusion cell proliferation inhibition test (CCK-8); format: cell-based; conditions: 72 hours incubation, CCK-8, absorbance at 450 nm
Protocol: The 96-well culture plate was placed in a 5 % carbon dioxide incubator at 37 °C to be cultured overnight. A test compound was formulated into a 10 mM storage solution with DMSO, and the 10mM storage solution was gradually diluted with DMSO at a dilution ration of 1:4 to obtain 9 concentration gradients of solutions of the test compound. The test compound was diluted with culture medium to 5 times the set final concentration of corresponding action, and the diluted solution of the test compound was added at 25 µL/well to corresponding cell wells according to the set compound layout, and then incubated in a 5 % carbon dioxide incubator at 37 °C for 72 hours. After 72 hours, 10 µL of CCK-8 was added into a cell culture medium, and the culture solution was sucked from adherent cells, then a freshly prepared CCK-8 detection solution was added and the cells were incubated in a 37 °C incubator for 1-4 hours. The absorbance at 450 nm wavelength on the SpectraMax i3X Microplate Reader was measured after gently shaking, with the absorbance at 650 nm as a reference.

ALK kinase = biological target: T1, ALK kinase (Homo sapiens, UniProt Q9UM73); assay: ALK kinase inhibition test; format: biochemical; conditions: 0.4 ng/well ALK kinase, 5 µM ATP, fluorescence 665 nm/615 nm
T1 construct: purchased Thermo Scientific
Protocol: The inhibitory activity of the compound in the present application on ALK kinase will be determined through in vitro tests, which can be represented by IC50 value.
4 µL of the diluted solution of the test compound and 2 µL of 0.4 ng/well ALK kinase solution (Thermo Scientific) were added into reaction wells in turn, incubated for 10 min at room temperature, then 4 µL of 0.7 µM biotin-labeled tyrosine kinase substrate and 5 µM ATP solution were added to start the kinase reaction.
Software Graphpad Prism 6 was used to fit an IC50 curve and calculate an IC50 value.

T1 sequence (Q9UM73 19-1620): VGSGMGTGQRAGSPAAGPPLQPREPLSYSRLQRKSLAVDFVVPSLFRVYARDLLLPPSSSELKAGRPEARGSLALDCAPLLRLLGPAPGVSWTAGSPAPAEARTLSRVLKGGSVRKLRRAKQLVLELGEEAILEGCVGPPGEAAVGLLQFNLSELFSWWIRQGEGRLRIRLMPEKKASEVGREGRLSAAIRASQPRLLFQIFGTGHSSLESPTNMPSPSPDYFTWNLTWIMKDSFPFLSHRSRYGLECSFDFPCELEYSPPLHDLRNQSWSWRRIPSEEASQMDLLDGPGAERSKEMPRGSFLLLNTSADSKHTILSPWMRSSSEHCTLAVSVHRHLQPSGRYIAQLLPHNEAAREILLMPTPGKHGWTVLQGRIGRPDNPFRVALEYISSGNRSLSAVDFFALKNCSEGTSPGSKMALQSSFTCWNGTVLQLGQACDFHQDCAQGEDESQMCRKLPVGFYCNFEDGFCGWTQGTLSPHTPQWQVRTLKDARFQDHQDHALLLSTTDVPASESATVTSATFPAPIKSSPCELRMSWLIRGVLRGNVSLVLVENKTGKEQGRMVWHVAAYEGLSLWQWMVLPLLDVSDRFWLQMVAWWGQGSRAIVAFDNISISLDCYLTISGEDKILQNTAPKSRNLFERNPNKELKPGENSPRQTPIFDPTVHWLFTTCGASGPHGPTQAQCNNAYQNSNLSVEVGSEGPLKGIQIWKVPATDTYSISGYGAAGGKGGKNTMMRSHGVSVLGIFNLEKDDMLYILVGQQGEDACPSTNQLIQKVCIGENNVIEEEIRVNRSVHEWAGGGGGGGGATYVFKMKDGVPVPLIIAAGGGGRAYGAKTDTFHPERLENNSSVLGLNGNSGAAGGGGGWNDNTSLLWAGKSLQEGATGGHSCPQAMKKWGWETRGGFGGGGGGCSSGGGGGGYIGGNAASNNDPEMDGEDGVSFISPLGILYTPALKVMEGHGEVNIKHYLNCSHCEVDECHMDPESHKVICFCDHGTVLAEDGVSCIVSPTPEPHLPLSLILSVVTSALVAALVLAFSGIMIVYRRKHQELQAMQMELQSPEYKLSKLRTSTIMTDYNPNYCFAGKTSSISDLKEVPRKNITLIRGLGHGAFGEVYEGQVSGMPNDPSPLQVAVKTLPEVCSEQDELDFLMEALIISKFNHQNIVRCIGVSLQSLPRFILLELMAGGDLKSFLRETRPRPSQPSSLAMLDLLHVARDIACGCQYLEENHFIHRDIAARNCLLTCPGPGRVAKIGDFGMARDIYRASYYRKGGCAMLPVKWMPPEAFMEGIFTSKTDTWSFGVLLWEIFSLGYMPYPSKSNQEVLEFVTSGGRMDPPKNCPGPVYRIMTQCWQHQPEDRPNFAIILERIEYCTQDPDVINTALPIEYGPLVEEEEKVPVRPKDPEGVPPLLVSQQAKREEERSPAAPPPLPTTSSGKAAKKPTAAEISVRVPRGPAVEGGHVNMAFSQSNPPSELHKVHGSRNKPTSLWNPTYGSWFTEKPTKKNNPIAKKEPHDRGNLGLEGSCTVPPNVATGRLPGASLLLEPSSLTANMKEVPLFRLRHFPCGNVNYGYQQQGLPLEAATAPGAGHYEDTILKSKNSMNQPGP

## C#Cc1ccc2c3c([nH]c2c1)C(C)(C)c1cc(N2CCC(NC)CC2)c(C#N)cc1C3=O [Example E28, 3-ethynyl-6,6-dimethyl-8-(4-(methylamino)piperidin-1-yl)-11-oxo-6,11-dihydro-5H-benzo[b]carb azole-9-carbonitrile]
[1]
  IC50: 5 nM
ALK kinase
  IC50: 2.62 nM
